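Compound exposure: 48 hours, 5 concentrations, 96-well plates. GI50 is the concentration that inhibits growth by half.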 The source made the active and inactive calls. Rule as the data show it: active = GI50 up to about 1.1 µM and inactive = higher.
Assays:
Experiment in all cases: NCI-60 cell line screen, 48 h
DLD-1 = system: DLD-1
HOP-18 = system: HOP-18
KM-20L2 = system: KM-20L2
LXFL 529 = system: LXFL 529
M19-MEL = system: M19-MEL
SNB-78 = system: SNB-78
XF498 = system: XF498
RXF 631 = system: RXF 631
T47D = system: T47D

Measured: GI50

Cn1c(=O)oc2cc(C3CCC(=O)N3Cc3csc(-c4ccccc4)n3)ccc21 (centres undefined)
inactive: DLD-1 86.9 µM | HOP-18 > 100 µM | KM-20L2 > 100 µM | LXFL 529 96.6 µM | M19-MEL > 100 µM | SNB-78 > 100 µM | XF498 67.1 µM

Cc1cccc(C)c1NC(=O)CCc1nnc2s/c(=C\c3ccc(Cl)cc3)c(=O)n12
inactive: DLD-1 37.8 µM | HOP-18 > 100 µM | KM-20L2 > 100 µM | LXFL 529 75.7 µM | M19-MEL > 100 µM | SNB-78 70 µM | XF498 52.8 µM

O=CN1CCN(C=S)CC1
inactive: DLD-1 > 100 µM | KM-20L2 > 100 µM | LXFL 529 > 100 µM | M19-MEL > 100 µM | RXF 631 > 100 µM | SNB-78 > 100 µM | XF498 > 100 µM

C[n+]1ccc(Nc2ccc(NC(=O)c3ccc(Nc4cc[n+](C)c5ccc([N+](=O)[O-])cc45)cc3[N+](=O)[O-])cc2)cc1
inactive: DLD-1 > 86.7 µM | HOP-18 20.5 µM | KM-20L2 > 100 µM | LXFL 529 15.8 µM | M19-MEL 18.3 µM | XF498 33.5 µM

COC(=O)C1C(C(=O)OC)C2(OC)c3ccccc3-c3ccccc3C12 (centres undefined)
inactive: DLD-1 33.3 µM | HOP-18 55.1 µM | KM-20L2 26.2 µM | LXFL 529 44.1 µM | M19-MEL 33 µM | RXF 631 54.8 µM

O=C1NC2OC(CO)C(O)C(O1)C2O (centres undefined)
inactive: DLD-1 > 100 µM | HOP-18 > 100 µM | KM-20L2 > 100 µM | LXFL 529 > 100 µM | M19-MEL > 100 µM | SNB-78 > 100 µM | XF498 > 100 µM

N#CCCN(c1ccc(/C=C2\N=C(c3ccc(Cl)cc3)OC2=O)cc1)S(=O)(=O)c1ccccc1
inactive: DLD-1 > 100 µM | KM-20L2 > 100 µM | LXFL 529 > 100 µM | M19-MEL > 100 µM | RXF 631 > 100 µM | XF498 > 100 µM

NC(N)NCCCc1cn2c(n1)C1CCCN1C(=O)C2Cc1ccccc1 (centres undefined)
inactive: DLD-1 > 100 µM | KM-20L2 > 100 µM | LXFL 529 > 100 µM | M19-MEL > 100 µM | RXF 631 > 100 µM | SNB-78 > 100 µM | XF498 > 100 µM

O=C1CCC(=O)N2CCCCN12
inactive: DLD-1 > 100 µM | HOP-18 > 100 µM | KM-20L2 > 100 µM | LXFL 529 > 100 µM | M19-MEL > 100 µM | RXF 631 > 100 µM | SNB-78 > 100 µM

COc1ccc2c[n+](C)c3c4cc(OC)c(OC)cc4ccc3c2c1
inactive: DLD-1 10.8 µM | HOP-18 28.6 µM | KM-20L2 3.52 µM | LXFL 529 1.21 µM | M19-MEL 12.4 µM | RXF 631 15.5 µM | SNB-78 12.2 µM | T47D 2.73 µM | XF498 9.84 µM

CCOC(=O)c1c(/C=N\Nc2ccccc2)nc2ccccc2c1-c1ccccc1
inactive: HOP-18 31 µM | KM-20L2 38.5 µM | LXFL 529 27.2 µM | M19-MEL 26.8 µM | RXF 631 41.2 µM | SNB-78 51.1 µM

CC1C=C(OC(=O)c2ccccc2)C(=O)C(n2cc(F)c(=O)[nH]c2=O)O1 (centres undefined)
inactive: DLD-1 22.8 µM | HOP-18 > 100 µM | KM-20L2 94.6 µM | LXFL 529 56 µM | M19-MEL 93.3 µM | SNB-78 > 100 µM | XF498 48.1 µM

CC(C)CC(CNC(Cc1ccc(Cl)cc1)C(N)=O)NC(=O)C(Cc1c[nH]cn1)NC(=O)CNC(=O)C(NC(=O)C(C)NC(=O)C(Cc1c[nH]c2ccccc12)NC(=O)C(CCC(=O)O)NC(=O)C(N)Cc1ccccc1)C(C)C (centres undefined)
inactive: DLD-1 > 133 µM | KM-20L2 > 133 µM | LXFL 529 > 133 µM | M19-MEL > 133 µM | RXF 631 > 133 µM | SNB-78 > 133 µM | XF498 > 133 µM

O=c1c2ccccc2[nH]c(=S)n1-c1ccc(Br)cc1
inactive: DLD-1 49.7 µM | HOP-18 > 100 µM | KM-20L2 63.4 µM | LXFL 529 37.3 µM | M19-MEL 74.8 µM | SNB-78 > 100 µM | XF498 > 100 µM

CN(CCCN1C(=O)c2cccc3cc([N+](=O)[O-])cc(c23)C1=O)CCN(C)CCCN1C(=O)c2cccc3cc([N+](=O)[O-])cc(c23)C1=O
inactive: HOP-18 > 39.3 µM | KM-20L2 > 39.3 µM | LXFL 529 2.45 µM | M19-MEL 18.2 µM | RXF 631 > 39.3 µM | SNB-78 > 39.3 µM | XF498 > 39.3 µM

CCCc1n[nH]c(CCC(=O)N(Cc2ccccc2)Cc2ccccc2)c1CC
inactive: DLD-1 > 100 µM | HOP-18 > 100 µM | KM-20L2 > 100 µM | LXFL 529 > 100 µM | M19-MEL > 100 µM | RXF 631 > 100 µM | XF498 > 100 µM

COc1ccc(/C=C/c2cc(OC)c(OC(C)=O)c(OC)c2)cc1
inactive: DLD-1 29.9 µM | KM-20L2 35.1 µM | LXFL 529 27.5 µM | M19-MEL 30.1 µM | RXF 631 36.1 µM | SNB-78 22 µM | XF498 34.5 µM

Cc1ccc2c(c1)SC(c1cc3c(cc1Br)OCO3)S2 (centres undefined)
inactive: DLD-1 > 31.6 µM | HOP-18 > 31.6 µM | KM-20L2 26.1 µM | LXFL 529 > 31.6 µM | M19-MEL 28.6 µM | RXF 631 > 10 µM | SNB-78 > 31.6 µM | XF498 > 100 µM

c1ccc2c(c1)Cc1c(Cc3csc4ccccc34)ccc3cccc-2c13
inactive: DLD-1 > 100 µM | KM-20L2 > 100 µM | LXFL 529 > 100 µM | M19-MEL > 100 µM | RXF 631 > 100 µM | SNB-78 94.4 µM | XF498 > 100 µM

CCC1C(C(=O)Nc2ccccc2C)=C(C)NC(C)=C1c1ccccc1C (centres undefined)
inactive: DLD-1 > 39.7 µM | HOP-18 > 60.8 µM | KM-20L2 > 92.3 µM | LXFL 529 > 100 µM | M19-MEL > 80.4 µM | SNB-78 > 100 µM | XF498 > 100 µM

— ChEMBL document CHEMBL1201862, “PubChem BioAssay data set” (2004)
